{"source": "paper PMC7933930", "about": "“Development of a small molecule that corrects misfolding and increases secretion of Z α1‐antitrypsin” (EMBO Molecular Medicine, 2021)", "key": {"Serotonin transporter": {"molecular_target": "Serotonin transporter (Homo sapiens, UniProt P31645)", "sequence (P31645 whole entry)": "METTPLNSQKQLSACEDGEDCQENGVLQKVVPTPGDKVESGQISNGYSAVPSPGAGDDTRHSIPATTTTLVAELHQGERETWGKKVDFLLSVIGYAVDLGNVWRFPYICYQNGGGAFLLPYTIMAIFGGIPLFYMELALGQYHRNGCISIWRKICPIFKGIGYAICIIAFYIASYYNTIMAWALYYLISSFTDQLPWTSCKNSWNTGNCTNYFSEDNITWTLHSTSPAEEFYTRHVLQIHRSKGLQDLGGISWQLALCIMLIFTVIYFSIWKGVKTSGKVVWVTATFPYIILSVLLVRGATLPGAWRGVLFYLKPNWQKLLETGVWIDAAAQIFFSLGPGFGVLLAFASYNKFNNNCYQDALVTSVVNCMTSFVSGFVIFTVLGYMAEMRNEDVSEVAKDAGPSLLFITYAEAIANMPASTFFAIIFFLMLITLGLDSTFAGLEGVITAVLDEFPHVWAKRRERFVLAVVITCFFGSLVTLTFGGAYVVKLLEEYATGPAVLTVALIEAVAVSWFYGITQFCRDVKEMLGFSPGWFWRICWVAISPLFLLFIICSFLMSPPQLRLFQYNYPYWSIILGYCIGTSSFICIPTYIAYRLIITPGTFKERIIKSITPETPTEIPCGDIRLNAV", "assay": "Off‐target panel: Serotonin transporter", "assay_type": "cell-based", "method": "(§1) GSK716 selectivity and PK properties were profiled in order to investigate the suitability of GSK716 for progression into in vivo studies and the potential for taking it forward as a clinical candidate for testing in humans. Since GSK716 results in loss of inhibitory activity of α1‐antitrypsin, the effect of the compound was assessed on other closely related serpins. […] Furthermore, there were no off‐target effects in a panel of assays considered predictive of known safety liabilities that precluded further development of GSK716 (Table EV1)."}, "α1 nicotinic AChR": {"molecular_target": "α1 nicotinic AChR (Homo sapiens, UniProt P02708)", "sequence (P02708 21-457)": "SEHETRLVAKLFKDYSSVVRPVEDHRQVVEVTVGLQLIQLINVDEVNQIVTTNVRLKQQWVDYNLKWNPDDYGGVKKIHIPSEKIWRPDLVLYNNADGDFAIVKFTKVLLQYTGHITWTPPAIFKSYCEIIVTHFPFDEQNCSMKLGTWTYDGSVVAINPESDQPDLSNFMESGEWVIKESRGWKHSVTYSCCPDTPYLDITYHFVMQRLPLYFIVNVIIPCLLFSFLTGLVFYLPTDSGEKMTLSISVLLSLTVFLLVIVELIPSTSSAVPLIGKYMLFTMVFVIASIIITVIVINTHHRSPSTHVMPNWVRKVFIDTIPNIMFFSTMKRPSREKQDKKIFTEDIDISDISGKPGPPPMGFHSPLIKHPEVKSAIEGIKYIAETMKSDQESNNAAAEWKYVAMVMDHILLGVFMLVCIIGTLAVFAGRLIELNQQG", "sequence (P11230 24-501 partner)": "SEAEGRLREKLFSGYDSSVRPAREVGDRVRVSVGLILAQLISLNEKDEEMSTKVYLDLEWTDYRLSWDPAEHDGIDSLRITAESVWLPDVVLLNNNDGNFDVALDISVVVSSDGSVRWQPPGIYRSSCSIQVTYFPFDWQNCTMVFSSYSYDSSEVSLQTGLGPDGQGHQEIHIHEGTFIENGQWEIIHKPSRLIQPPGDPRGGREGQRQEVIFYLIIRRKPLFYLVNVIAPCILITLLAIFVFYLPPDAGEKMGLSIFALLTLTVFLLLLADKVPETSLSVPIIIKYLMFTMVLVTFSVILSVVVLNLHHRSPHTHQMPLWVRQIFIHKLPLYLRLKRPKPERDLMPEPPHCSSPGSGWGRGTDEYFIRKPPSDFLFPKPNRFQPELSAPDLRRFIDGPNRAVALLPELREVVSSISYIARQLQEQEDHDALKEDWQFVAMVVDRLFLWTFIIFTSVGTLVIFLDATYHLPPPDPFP", "sequence (Q07001 22-517 partner)": "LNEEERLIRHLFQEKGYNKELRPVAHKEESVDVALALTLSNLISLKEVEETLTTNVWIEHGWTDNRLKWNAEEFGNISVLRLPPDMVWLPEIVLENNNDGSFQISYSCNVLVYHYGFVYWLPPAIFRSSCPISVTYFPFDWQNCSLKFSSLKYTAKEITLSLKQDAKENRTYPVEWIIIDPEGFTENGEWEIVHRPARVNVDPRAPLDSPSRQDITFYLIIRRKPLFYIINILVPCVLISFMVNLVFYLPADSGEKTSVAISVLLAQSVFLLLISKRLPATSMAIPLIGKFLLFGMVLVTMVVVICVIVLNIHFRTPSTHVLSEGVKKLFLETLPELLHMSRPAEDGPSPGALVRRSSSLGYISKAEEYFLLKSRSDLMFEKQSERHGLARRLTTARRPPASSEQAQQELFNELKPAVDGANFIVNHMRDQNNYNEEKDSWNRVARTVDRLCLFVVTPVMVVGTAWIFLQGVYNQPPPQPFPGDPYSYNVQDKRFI", "assay": "Off‐target panel: α1 nicotinic AChR", "assay_type": "cell-based", "method": "as §1"}, "Adenosine A2a": {"molecular_target": "Adenosine A2a (Homo sapiens, UniProt P29274)", "sequence (P29274 whole entry)": "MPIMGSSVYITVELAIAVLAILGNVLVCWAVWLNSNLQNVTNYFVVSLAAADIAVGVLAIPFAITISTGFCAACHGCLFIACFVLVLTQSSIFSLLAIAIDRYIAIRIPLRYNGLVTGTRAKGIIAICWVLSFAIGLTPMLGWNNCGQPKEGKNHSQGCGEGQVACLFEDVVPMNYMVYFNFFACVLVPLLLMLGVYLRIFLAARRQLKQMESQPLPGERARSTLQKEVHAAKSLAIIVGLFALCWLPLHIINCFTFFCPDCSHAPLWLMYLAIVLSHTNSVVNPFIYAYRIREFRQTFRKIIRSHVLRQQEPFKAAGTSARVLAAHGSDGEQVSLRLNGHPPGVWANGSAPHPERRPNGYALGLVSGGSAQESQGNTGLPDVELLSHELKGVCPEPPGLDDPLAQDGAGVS", "assay": "Off‐target panel: Adenosine A2a", "assay_type": "cell-based", "conditions": "Agonist, read-out: Mean (PXC50)", "method": "as §1"}, "Z α1‐antitrypsin": {"molecular_target": "Z α1‐antitrypsin (Homo sapiens, UniProt P01009, E366K)", "sequence (P01009 25-418 E366K)": "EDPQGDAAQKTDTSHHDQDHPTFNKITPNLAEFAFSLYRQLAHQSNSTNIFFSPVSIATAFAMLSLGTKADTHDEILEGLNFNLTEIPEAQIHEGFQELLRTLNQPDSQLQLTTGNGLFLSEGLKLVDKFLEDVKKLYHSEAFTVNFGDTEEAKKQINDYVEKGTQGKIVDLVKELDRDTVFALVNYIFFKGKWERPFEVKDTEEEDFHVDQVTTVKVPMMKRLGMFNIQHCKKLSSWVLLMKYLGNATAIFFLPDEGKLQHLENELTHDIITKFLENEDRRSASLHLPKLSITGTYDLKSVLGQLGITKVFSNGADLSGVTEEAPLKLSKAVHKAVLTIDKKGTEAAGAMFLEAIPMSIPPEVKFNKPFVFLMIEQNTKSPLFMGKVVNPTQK", "assay": "Competition binding assay with Alexa488‐labelled analogue of GSK716, Z α1‐antitrypsin", "design": "purified from the plasma of Z α1‐antitrypsin homozygotes; from tissue; host or cells: human plasma of Z α1-antitrypsin homozygotes", "conditions": "n = 18, mean ± SD, read-out: mean pKD (converted)", "description": "The shape of the curves and native mass spectrometry (not shown) are consistent with a single high‐affinity compound binding site. No binding of the fluorescent derivative to polymers of Z α1‐antitrypsin was observed, indicating conformational selectivity for the monomeric protein (Fig 1D). The rate of interaction of the compound with the target was monitored through changes in intrinsic tryptophan fluorescence (Dafforn et al, 1999); this property was used to determine the second‐order association rate constants for GSK716 binding to Z (4.1 × 10^4 M^−1 s^−1) and M α1‐antitrypsin (2.1 × 10^2 M^−1 s^−1; Fig 1E and F). […] Therefore, the selectivity of the compound for Z over M α1‐antitrypsin is dominated by the difference in the rate of association rather than dissociation.\nKinetic parameters of GSK716 binding to M, Z, S (Glu264Val) and Baghdad (Ala336Pro) (Haq et al, 2016) α1‐antitrypsin were measured by detecting intrinsic tryptophan fluorescence of the protein (excitation at 280 nm and detection of emission at 320 nm) on a stopped flow apparatus (Applied Photophysics) (Kim & Yu, 1996; Dafforn et al, 1999). […]"}, "Glucocorticoid Receptor": {"molecular_target": "Glucocorticoid Receptor (Homo sapiens, UniProt P04150)", "sequence (P04150 whole entry, species assumed)": "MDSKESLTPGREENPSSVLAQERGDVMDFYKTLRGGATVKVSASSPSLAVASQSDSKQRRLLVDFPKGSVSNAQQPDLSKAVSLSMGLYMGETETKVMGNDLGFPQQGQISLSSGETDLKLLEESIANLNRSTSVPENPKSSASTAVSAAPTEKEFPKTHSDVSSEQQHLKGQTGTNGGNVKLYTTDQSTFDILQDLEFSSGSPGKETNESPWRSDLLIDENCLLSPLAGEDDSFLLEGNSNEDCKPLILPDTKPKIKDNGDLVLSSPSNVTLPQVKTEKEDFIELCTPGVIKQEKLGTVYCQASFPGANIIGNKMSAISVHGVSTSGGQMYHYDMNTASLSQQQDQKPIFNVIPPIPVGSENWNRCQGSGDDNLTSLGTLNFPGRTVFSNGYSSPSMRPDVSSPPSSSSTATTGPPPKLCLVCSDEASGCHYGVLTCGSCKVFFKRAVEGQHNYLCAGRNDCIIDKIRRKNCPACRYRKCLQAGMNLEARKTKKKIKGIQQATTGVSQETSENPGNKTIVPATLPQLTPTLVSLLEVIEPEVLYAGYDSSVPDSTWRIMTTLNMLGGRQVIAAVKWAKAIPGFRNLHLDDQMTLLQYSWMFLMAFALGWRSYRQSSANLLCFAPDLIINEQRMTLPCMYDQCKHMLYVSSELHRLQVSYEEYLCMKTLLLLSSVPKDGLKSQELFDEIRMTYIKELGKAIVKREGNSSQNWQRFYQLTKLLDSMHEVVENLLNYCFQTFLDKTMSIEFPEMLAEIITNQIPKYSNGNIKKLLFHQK", "assay": "Off‐target panel: Glucocorticoid Receptor", "assay_type": "cell-based", "conditions": "Agonist, read-out: Mean (PXC50)", "method": "as §1"}, "[1]": {"test_system": "Z α1‐antitrypsin secretion in iPSC‐derived human hepatocytes (ZZ genotype)", "assay": "Secretion of Z α1‐antitrypsin from ZZ iPSC‐derived human hepatocytes", "assay_type": "cell-based", "conditions": "for EC50: Hepatocyte", "method": "The ability of GSK716 to block Z α1‐antitrypsin polymerisation in the ER during folding was assessed by adding GSK716 to CHO‐TET‐ON‐Z‐A1AT cells (Ordóñez et al, 2013) with simultaneous induction of Z α1‐antitrypsin expression using doxycycline. […] Similar potency between the effects on secretion and polymerisation was observed throughout members of the lead series supporting the hypothesis that these effects are caused by the same pharmacological mode of action.\nFigure 2 GSK716 inhibits polymerisation of Z α1‐antitrypsin in cell models of disease • A GSK716 was added to CHO‐TET‐ON‐Z‐A1AT cells (Ordóñez et al, 2013) with simultaneous induction of Z α1‐antitrypsin expression using doxycycline, and polymer load was quantified with the 2C1 monoclonal antibody that is specific to pathological polymers of α1‐antitrypsin (Miranda et al, 2010). […] Data were normalised to vehicle and a control compound from the GSK716 series at saturating concentration. […] It induced an approximately threefold increase in secreted levels of Z α1‐antitrypsin compared with vehicle control. […] For every time point, NP‐40‐soluble and NP‐40‐insoluble fractions were separated and immunoprecipitated with the 2C1 mAb and resolved by 4–12% w/v SDS–PAGE and α1‐antitrypsin detected by immunoblotting. […] Cell viability was measured by Cell Counting Kit‐8. […] Samples were resolved by 4–12% w/v acrylamide SDS–PAGE and detected by autoradiography. • H The graphs show the effect of GSK716 on intracellular and extracellular Z α1‐antitrypsin (mean ± SEM, n = 2).\nThe accumulation and clearance of Z α1‐antitrypsin polymer was measured with the 2C1 monoclonal antibody that is specific for polymerised antitrypsin in CHO‐TET‐ON‐Z‐α1AT cells (Ordóñez et al, 2013) and iPSC‐derived hepatocytes generated from a patient with a PiZZ genotype (Yusa et al, 2011). Secretion of Z α1‐antitrypsin was determined by TR‐FRET. Cell viability was analysed with Cell Counting Kit‐8 (Sigma) after treating the cells with 10 µM GSK716 or 0.1% v/v DMSO (vehicle) and an increasing concentration of tunicamycin (0.8–0.01 µg/ml)."}, "Cannabinoid CB1": {"molecular_target": "Cannabinoid CB1 (Homo sapiens, UniProt P21554)", "sequence (P21554 whole entry)": "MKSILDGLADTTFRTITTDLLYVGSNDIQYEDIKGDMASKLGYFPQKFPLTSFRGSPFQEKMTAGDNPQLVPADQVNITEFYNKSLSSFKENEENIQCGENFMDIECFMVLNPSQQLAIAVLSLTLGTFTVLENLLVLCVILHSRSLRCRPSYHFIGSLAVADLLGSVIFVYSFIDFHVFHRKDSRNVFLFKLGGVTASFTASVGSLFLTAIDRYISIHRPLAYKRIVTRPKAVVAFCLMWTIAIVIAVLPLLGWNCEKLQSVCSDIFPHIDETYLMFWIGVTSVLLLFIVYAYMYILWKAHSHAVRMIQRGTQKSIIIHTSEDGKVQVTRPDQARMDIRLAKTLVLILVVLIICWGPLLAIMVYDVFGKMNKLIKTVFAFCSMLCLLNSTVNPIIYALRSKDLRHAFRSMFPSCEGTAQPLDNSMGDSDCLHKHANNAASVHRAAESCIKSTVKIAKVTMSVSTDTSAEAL", "assay": "Off‐target panel: Cannabinoid CB1 (DRX)", "assay_type": "cell-based", "method": "as §1"}}, "note": "Read-outs that look alike come from different tables or passages of the source.", "data": [{"smiles": "CCC[C@@H](NC(=O)c1cccc2c1CC(=O)N2)[C@@H](O)c1cccc(F)c1C", "note": "[GSK716]", "values": [{"measurement": "IC50", "setting": "Serotonin transporter", "value": "> 100", "unit": "µM"}, {"measurement": "EC50", "setting": "α1 nicotinic AChR", "value": "> 50.1", "unit": "µM"}, {"measurement": "IC50", "setting": "α1 nicotinic AChR", "value": 31.6, "unit": "µM"}, {"measurement": "EC50", "setting": "Adenosine A2a", "value": "> 100", "unit": "µM"}, {"measurement": "Kd", "setting": "Z α1‐antitrypsin", "value": 0.00316, "unit": "µM"}, {"measurement": "EC50", "setting": "Glucocorticoid Receptor", "value": "> 100", "unit": "µM"}, {"measurement": "EC50", "setting": "[1]; ZZ iPSC‐derived human hepatocytes, n = 14, read-out: mean pEC50, secretion (converted)", "value": 0.316, "unit": "µM"}, {"measurement": "EC50", "setting": "[1]; Homo sapiens, as quoted for the PK‐PD target concentration, cell system not stated there, read-out: cellular secretion assay EC50", "value": 0.3, "unit": "µM"}, {"measurement": "increase in secreted levels of Z α1‐antitrypsin compared with vehicle control", "setting": "[1]; ZZ iPSC‐derived human hepatocytes", "value": "approximately threefold"}, {"measurement": "EC50", "setting": "Cannabinoid CB1", "value": "> 100", "unit": "µM"}]}]}
